Data published in EP1473301A2, “Betulinol derivatives” (CORNELL RESEARCH FOUNDATION, INC., priority 1997, dated 1998).

What was measured:
[1] = Betulinol biacetate solubility in organic solvents; type: physicochemical
Experimental: Studies of betulinol biacetate solubility were conducted in order to determine the appropriate solvent for product crystallization and purification.

[2] = test system: WALKER-CARCINOMA (carcinosarcoma); assay: Anti-carcinogenic activity in rats implanted with Walker carcinoma (tumor volume, average length of life, % cured); type: in vivo, white rats
Experimental: (§1) The anti-carcinogenic activity of betulinol biacetate and betulonic aldehyde was assessed using 117-120 gram white rats implanted with […] and 21-23 gram white mice with artificially transplanted Ehrlich's tumor.
(§2) Solutions of 2.5% betulonic aldehyde and 0.05% betulinol biacetate were prepared in 10% polyvinylpyrrolidone containing Tween-80 (a sorbitan mono-9-octadecenate poly(oxy-1,2-ethanediyl)) stabilizer.
(§3) Mice were injected with 0.1-0.2 ml of either betulinol biacetate or betulonic aldehyde solution daily, starting 24 hours after transplantation, for the following 5 days. Rats were injected with 1.2 ml of either betulinol biacetate or betulonic aldehyde solution daily, starting 24 hours after implantation, for the following 5 days. Animals in control groups received the same amount of a 10% solution of polyvinylpyrrolidone.
(§4) The anti-tumor effect of betulinol acetate or betulonic aldehyde was determined by measuring the volume of the tumor on the 10th day after implantation. An average length of life ("ALL") was calculated for each of the deceased animals. In addition, the percentage of cured rats was also determined.
(§5) The volume of the tumor was measured and calculated as a multiple of the quadrate of its similar diameter by the greater diameter. Thus, the effect was expressed as a ratio ("E/C"), in percent, of the tumor volume in rats treated with betulinol acetate or betulonic aldehyde ("E") and the tumor volume in control rats ("C"). The effect of betulinol acetate or betulonic aldehyde on ALL was evaluated the same way.
(§6) A total of 155 mice and 142 rats were used for these experiments.

EHRLICH-LETTRE CARCINOMA = assay: Anti-carcinogenic activity in mice with transplanted Ehrlich tumor (average length of life); type: in vivo, white mice; conditions: for ALL (Average length of life): 17 Mice/Group, control 10.6; for % of control (ALL): control = 100
Experimental: as §1, §2, §3, §4, §5, §6

[3] = Group 1, Dose/day 206.7 mg/kg body weight
[4] = Group 2, Dose/day 197.0 mg/kg body weight
[5] = Group 3, Dose/day 98.0 mg/kg body weight

C=C(C)[C@@H]1CC[C@]2(COC(C)=O)CC[C@]3(C)[C@H](CC[C@@H]4[C@@]5(C)CC[C@H](OC(C)=O)C(C)(C)[C@@H]5CC[C@]43C)[C@@H]12 [Betulinol diacetate, Betulinol Biacetate]
BBA Mass Content, %, at 20 °C ([1]; Acetone): 32 mass %
BBA Mass Content, %, at T (°C) ([1]; Acetone, 56 °C): 68 mass %
BBA Mass Content, %, at 20 °C ([1]; Benzene): 100 mass %
BBA Mass Content, %, at 20 °C ([1]; Butanol): 15 mass %
BBA Mass Content, %, at T (°C) ([1]; Butanol, 95 °C): 100 mass %
BBA Mass Content, %, at 20 °C ([1]; Chloroform): 100 mass %
BBA Mass Content, %, at 20 °C ([1]; Dimethylsulfoxide): 30 mass %
BBA Mass Content, %, at T (°C) ([1]; Dimethylsulfoxide, 189 °C): 100 mass %
BBA Mass Content, %, at 20 °C ([1]; Dioxane): 30 mass %
BBA Mass Content, %, at T (°C) ([1]; Dioxane, 101 °C): 100 mass %
BBA Mass Content, %, at 20 °C ([1]; Ethanol): 2.8 mass %
BBA Mass Content, %, at T (°C) ([1]; Ethanol, 78 °C): 18 mass %
BBA Mass Content, %, at 20 °C ([1]; Ethylacetate): 53 mass %
BBA Mass Content, %, at T (°C) ([1]; Ethylacetate, 77 °C): 100 mass %
BBA Mass Content, %, at 20 °C ([1]; Hexane): 15 mass %
BBA Mass Content, %, at T (°C) ([1]; Hexane, 69 °C): 52 mass %
BBA Mass Content, %, at 20 °C ([1]; Isopropanol): 6.5 mass %
BBA Mass Content, %, at T (°C) ([1]; Isopropanol, 82 °C): 72 mass %
BBA Mass Content, %, at 20 °C ([1]; Toluene): 100 mass %

C=C(C)[C@@H]1CC[C@]2(C=O)CC[C@]3(C)[C@H](CC[C@@H]4[C@@]5(C)CCC(=O)C(C)(C)[C@@H]5CC[C@]43C)[C@@H]12 [Betulon aldehyde, Betulonic Aldehyde]
rate of the tumor growth inhibited (of the control group) ([2]; 10th day, tumor volume versus control, dose and species not stated in the sentence (method speaks of rats)): 31.2%
ALL (Average length of life) ([2]; rats, Group 1, Dose/day 102.6 mg/kg body weight, injected daily for 5 days, 28 Rats/Group, control 21.7): 26.5 days
% of control (ALL) ([2]; rats, Group 1, Dose/day 102.6 mg/kg body weight, control = 100): 122.1%
% cured ([2]; rats, Group 1, Dose/day 102.6 mg/kg body weight, cured rats lived over two months after implantation): 33.0%
ALL (Average length of life) (EHRLICH-LETTRE CARCINOMA; [3]): 12.5 days
% of control (ALL) (EHRLICH-LETTRE CARCINOMA; [3]): 118.0%
ALL (Average length of life) (EHRLICH-LETTRE CARCINOMA; [4]): 10.5 days
% of control (ALL) (EHRLICH-LETTRE CARCINOMA; [4]): 99.1%
ALL (Average length of life) (EHRLICH-LETTRE CARCINOMA; [5]): 11.0 days
% of control (ALL) (EHRLICH-LETTRE CARCINOMA; [5]): 103.7%
